This passage reports Ki results from patent publication US6355644B1, “Benzylpiperazinyl-indolinylethanones” (Neurogen Corporation, priority 1999, dated 2002).

As a reminder, the Ki is the dissociation constant of the complex between target and ligand, obtained from inhibition or displacement.

The target of assay [1] is dopamine D2 receptor (Chlorocebus aethiops, UniProt P52702). In words: D2 receptor binding assay (3H-YM 09151-2 displacement). Particulars: CHO cells recombinantly expressing primate D2; 0.1 nM 3H-YM 09151-2; 25° C. On the procedure:
(§1) Determination of D2 and D4 Receptor Binding Activity
(§2) The following assay is used for determining the binding affinity of compounds to dopamine D4 and D2 receptors.
(§3) Pellets of Chinese hamster ovary (CHO) cells containing recombinantly expressing primate D2, human D4 or […] receptors are used for the assays. The sample is homogenized in 100 volumes (w/vol) of 0.05 M Tris HCl buffer containing 120 mM NaCl, 5 mM MgCl2 and 1 mM EDTA at 4° C. and pH 7.4. The sample is then centrifuged at 30,000×g, resuspended and rehomogenized. The sample is then recentrifuged at 30,000×g, the supernatant is removed and the final tissue sample is frozen until it is needed. The tissue is resuspended 1:20 (wt/vol) in 0.05 M Tris HCl buffer containing 120 mM NaCl.

For assay [2], the target named is T1, dopamine D4 receptor (Homo sapiens, UniProt P21917).
T1 sequence (P21917 1-419): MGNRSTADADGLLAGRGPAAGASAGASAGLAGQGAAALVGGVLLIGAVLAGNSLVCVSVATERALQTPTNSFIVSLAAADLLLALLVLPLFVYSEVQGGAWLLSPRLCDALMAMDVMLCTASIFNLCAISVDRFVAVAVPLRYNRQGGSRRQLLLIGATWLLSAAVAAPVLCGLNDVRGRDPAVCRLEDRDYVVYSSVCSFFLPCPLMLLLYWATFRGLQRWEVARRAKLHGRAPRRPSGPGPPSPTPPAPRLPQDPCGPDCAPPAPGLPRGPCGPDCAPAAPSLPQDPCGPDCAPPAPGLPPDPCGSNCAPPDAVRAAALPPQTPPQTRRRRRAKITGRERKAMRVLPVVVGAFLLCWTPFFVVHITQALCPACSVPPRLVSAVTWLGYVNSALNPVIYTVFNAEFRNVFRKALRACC
In words: D4 receptor binding assay (3H-YM 09151-2 displacement). The conditions noted are these: CHO cells recombinantly expressing human D4; 0.1 nM 3H-YM 09151-2; 25° C. The procedure: as §1, §2, §3

Chain of dopamine D2 receptor (P52702 whole entry): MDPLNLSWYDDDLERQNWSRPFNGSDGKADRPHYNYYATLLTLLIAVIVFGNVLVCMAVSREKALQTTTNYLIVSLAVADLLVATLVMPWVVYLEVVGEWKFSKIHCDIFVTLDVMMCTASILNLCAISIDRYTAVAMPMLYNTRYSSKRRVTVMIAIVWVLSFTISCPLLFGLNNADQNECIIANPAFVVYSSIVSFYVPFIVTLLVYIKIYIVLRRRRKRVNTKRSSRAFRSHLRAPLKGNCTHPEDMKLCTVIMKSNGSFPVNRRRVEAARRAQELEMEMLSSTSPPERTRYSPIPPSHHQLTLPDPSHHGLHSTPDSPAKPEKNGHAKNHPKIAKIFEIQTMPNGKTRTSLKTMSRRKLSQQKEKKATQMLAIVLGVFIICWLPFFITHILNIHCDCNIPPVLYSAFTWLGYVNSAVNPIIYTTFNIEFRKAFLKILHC

For the molecule `O=C(CN1CCN(Cc2ccc(Cl)cc2)CC1)N1c2ccccc2CC1CO` (centres unmarked) [Compound 1j], the Ki in assay [1] was found to be 3.21 µM.

As to `COc1ccc(Cl)cc1CN1CCN(CC(=O)N2c3ccccc3C(C)C2C)CC1` (centres unmarked) [Compound 1e], the Ki in assay [1] was 0.128 µM; in assay [2] it was 0.022 µM. In the case of `Cc1ccc(CN2CCN(CC(=O)N3c4ccccc4[C@@H](C)[C@H]3C)CC2)cc1` [Compound 1c], the Ki in assay [1] worked out at 0.185 µM; in assay [2] it was 0.002 µM. For `O=C(CN1CCN(Cc2ccc(Cl)cc2)CC1)N1c2ccccc2C[C@H]1CF` [Compound 1m], the Ki in assay [1] amounted to 1.1 µM. `Cc1ccc(CN2CCN(CC(=O)N3CC(C)c4ccccc43)CC2)cc1` (centres unmarked) [Compound 1b]: the values for the Ki in assay [1] and in assay [2] were 2.64 µM and 0.093 µM, respectively. With `C=C[C@@H]1Cc2ccccc2N1C(=O)CN1CCN(Cc2ccc(Cl)cc2)CC1` [Compound 1l], the Ki in assay [2] was 0.005 µM. Turning to `Cc1ccc(CN2CCN(CC(=O)N3c4ccccc4[C@H](C)[C@@H]3C)CC2)cc1` [Compound 1d], the values for the Ki in assay [1] and in assay [2] were 0.473 µM and 0.07 µM, respectively.

In the case of `COC(=O)C1Cc2ccccc2N1C(=O)CN1CCN(Cc2ccc(Cl)cc2)CC1` (centres unmarked) [Compound 1g], the Ki in assay [2] was 0.005 µM.

Turning to `Cc1ccc(CN2CCN(CC(=O)N3c4ccccc4[C@H]4CCCC[C@H]43)CC2)cc1` (relative stereo) [Compound 1o, 1-[(4b,8a-cis-5,6,7,8,9,4b,8a-heptahydro-4aH-carbazol-9-yl)ethyl]-2-{4-[(4-methylphenyl)methyl]piperazinyl}ethan-1-one], the Ki is 0.2 µM in assay [1] and 0.011 µM in assay [2].
